Test results as given in US20100035926A1, “PYRAZOLE DERIVATIVES AS NON-STEROIDAL GLUCOCORTICOID RECEPTOR LIGANDS” (priority 2006, published 2010).
Read-outs that look alike come from different tables or passages of the source.

Legend:
glucocorticoid receptor = molecular target: T1, glucocorticoid receptor (Homo sapiens, UniProt P04150); assay: Glucocorticoid Receptor Binding Assay (fluorescence polarisation, displacement of Alexa 555 labelled dexamethasone derivative); settings: at least once in this assay; read-out: glucocorticoid binding pIC50 (converted)
T1 construct: a partially purified full length glucocorticoid receptor
T1 sequence (P04150 1-777): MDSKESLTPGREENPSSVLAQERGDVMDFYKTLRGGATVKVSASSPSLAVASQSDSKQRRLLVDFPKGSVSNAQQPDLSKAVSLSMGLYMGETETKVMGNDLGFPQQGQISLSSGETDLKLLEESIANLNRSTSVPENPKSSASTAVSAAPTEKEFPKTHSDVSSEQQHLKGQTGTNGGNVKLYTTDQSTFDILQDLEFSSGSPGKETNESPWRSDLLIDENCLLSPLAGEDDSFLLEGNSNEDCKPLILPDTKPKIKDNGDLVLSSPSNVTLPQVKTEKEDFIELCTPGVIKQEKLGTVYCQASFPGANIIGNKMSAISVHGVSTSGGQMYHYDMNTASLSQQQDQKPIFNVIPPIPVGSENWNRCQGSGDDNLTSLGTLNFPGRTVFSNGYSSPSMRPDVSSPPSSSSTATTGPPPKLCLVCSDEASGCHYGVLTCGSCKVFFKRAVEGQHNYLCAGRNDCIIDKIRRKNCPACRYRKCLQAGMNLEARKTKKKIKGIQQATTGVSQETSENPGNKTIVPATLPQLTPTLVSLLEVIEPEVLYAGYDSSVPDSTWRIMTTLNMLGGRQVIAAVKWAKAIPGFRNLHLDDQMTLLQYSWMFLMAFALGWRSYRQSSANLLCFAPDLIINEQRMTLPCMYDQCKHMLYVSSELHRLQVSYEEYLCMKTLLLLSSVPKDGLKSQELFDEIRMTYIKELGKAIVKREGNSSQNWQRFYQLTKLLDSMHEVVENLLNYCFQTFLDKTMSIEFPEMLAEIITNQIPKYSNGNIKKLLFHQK
Experimental: Compounds were solvated and diluted in DMSO, and transferred directly into assay plates. Fluorescent dexamethasone and a partially purified full length glucocorticoid receptor were added to the plates, together with buffer components to stabilise the GR protein and incubated at room temperature for 2 hr in the dark. Binding of each compound was assessed by analysing the displacement of fluorescent ligand by measuring the decrease in fluorescence polarisation signal from the mixture.

GR [1] = molecular target: T2, GR (Homo sapiens, UniProt P04150); assay: GR Functional Assay - NFκB Assay (A549 SPAP cells, TNFα stimulated); type: cell-based; settings: for Emax: agonists, read-out: average maximum asymptote in the NFkB assay
T2 construct: endogenous in cells; host or cells: A549 (human lung carcinoma, ECACC No. 86012804), stably transfected with reporter plasmids only
T2 sequence (P04150 1-777): T1 sequence (P04150 1-777)
Experimental: Stimulation of the cell line with TNFα results in intracellular signal transduction and ultimately translocation of NFκB into the nucleus. This activates the inserted DNA sequence resulting in transcription of the integrated SPAP gene, which is quantified using a calorimetric assay. […] The stably transfected cell line was grown as a monolayer in DMEM supplemented with FCS-HI (10%), Non-essential amino acids (1%), L-Glutamine (2 mM), Pen/Strep (1%) and Geneticin (50 mg/ml).
A 70% confluent T225 flask of A549 SPAP cells was harvested by centrifugation for 5 mins at 200 g, resuspended in assay buffer (DMEM supplemented with 10% FCS 2×HI, 2 mM L-Glutamine, 1% Pen/Strep and Non essential amino acids) and diluted to 0.16×10^6/ml. 60 μl of cell solution was dispensed to each well of clear Nunc 384-well plates, containing compound at the required concentration. […] Plates were equilibrated to room temperature for 1 hr prior to the addition of 25 μl of pNPP buffer (1M Diethanolamine pH 9.8, 0.5 mM MgCl2, 0.28M NaCl, 2 mg/ml pNPP) to each well of assay plates.

GR [2] = molecular target: T2, GR; assay: GR Agonist Assay - MMTV Assay (A549 MMTV cells, renilla luciferase reporter); type: cell-based; settings: 6 h, agonists, read-out: average maximum asymptote in the MMTV agonist assay
Experimental: Stimulation of the cell line with GR agonists results in intracellular signal transduction and ultimately translocation of GR into the nucleus. This activates the inserted DNA sequence resulting in transcription of the integrated luciferase gene, which is quantified using a light emission. The stably transfected cell line was grown as a monolayer in DMEM supplemented with FCS-HI (10%), Non-essential amino acids (1%), L-Glutamine (2 mM), Pen/Strep (1%) and Geneticin (50 mg/ml).
A 90% confluent T175 flask of A549 MMTV cells was harvested by centrifugation for 5 min at 200 g, resuspended in assay buffer (DMEM supplemented with 10% FCS 2×HI, 2 mM Glutamax, Non essential amino acids and 25 mM HEPES) and diluted to 0.1×10^6/ml. 70 μl of cell solution was dispensed to each well of white Nunc 384-well plates, containing compound at the required concentration. […] The plates were covered to protect the reagents from light, and then incubated at room temperature for approximately 15 mins before reading them on a Viewlux.

[3] = at least once in the NFkB assay, A549 SPAP cells, read-out: pIC50 in the NFkB assay (converted)
[4] = at least once, examples listed as agonists in NFkB and MMTV assays, read-out: potency pIC50 in the NFKB assay (converted)

Row | Compound | IC50 (glucocorticoid receptor) [nM] | Emax (GR [1]; A549 SPAP cells) [%] | IC50 (GR [1]; [3]) [nM] | IC50 (GR [1]; [4]) [nM] | Emax (GR [2]) [%]
1 | CCN(CC(O)(CNC(=O)c1cnn(-c2ccc(F)cc2)c1N)C(F)(F)F)C(=O)c1cccc(F)c1Cl (racemic) [Example 18 (racemic), 5-amino-N-(2-{[[(2-chloro-3-fluorophenyl)car-bonyl](ethyl)amino]methyl}-3,3,3-trifluoro-2-hydroxypropyl)-1-(4-fluorophenyl)-1H-pyrazole-4-carboxamide] | < 1000 | ≥ 40 | < 1000 | < 316 | ≥ 40
2 | CCN(CC(O)(CNC(=O)c1cnn(-c2ccc(F)cc2)c1N)C(F)(F)F)C(=O)c1cccc(C(F)(F)F)c1 (racemic) [Example 20 (racemic), 5-amino-N-{2-[(ethyl{[3-(trifluoromethyl)phenyl]carbonyl}amino)methyl]-3,3,3-trifluoro-2-hydroxypropyl}-1-(4-fluorophenyl)-1H-pyrazole-4-carboxamide] | < 1000 | ≥ 40 | < 1000 | < 316 | ≥ 40
3 | CCN(CC(O)(CNC(=O)c1cnn(-c2ccc(F)cc2)c1N)C(F)(F)F)C(=O)c1ccc(F)cc1Cl (racemic) [Example 23 (racemic), 5-amino-N-(2-{[[(2-chloro-4-fluorophenyl)car-bonyl](ethyl)amino]methyl}-3,3,3-trifluoro-2-hydroxypropyl)-1-(4-fluorophenyl)-1H-pyrazole-4-carboxamide] | < 1000 | ≥ 40 | < 1000 | < 316 | ≥ 40
4 | CC(=O)c1ccccc1C(=O)N(C)CC(O)(CNC(=O)c1cnn(-c2ccc(F)cc2)c1N)C(F)(F)F (racemic) [Example 27 (racemic), N-(2-{[[(2-acetylphenyl)car-bonyl](methyl)amino]methyl}-3,3,3-trifluoro-2-hydroxypropyl)-5-amino-1-(4-fluorophenyl)-1H-pyrazole-4-carboxamide] | < 1000 | ≥ 40 | < 1000 | < 316 | ≥ 40
5 | CN(CC(O)(CNC(=O)c1cnn(-c2ccc(F)cc2)c1N)C(F)(F)F)C(=O)c1ccccc1C(F)(F)F (racemic) [Example 28 (racemic), 5-amino-1-(4-fluorophenyl)-N-{3,3,3-trifluoro-2-hydroxy-2-[(methyl{[2-(trifluoromethyl)phenyl]carbonyl}amino)methyl]propyl}-1H-pyrazole-4-carboxamide] | < 1000 | ≥ 40 | < 1000 | < 316 | ≥ 40
6 | CCN(CC(O)(CNC(=O)c1cnn(-c2ccc(Cl)cc2)c1N)C(F)(F)F)C(=O)c1ccccc1 (racemic) [Example 32 (racemic), 5-amino-1-(4-chlorophenyl)-N-(2-{[ethyl(phenylcarbonyl)amino]methyl}-3,3,3-trifluoro-2-hydroxypropyl)-1H-pyrazole-4-carboxamide] | < 1000 | ≥ 40 | – | < 316 | ≥ 40
7 | CCN(CC(O)(CNC(=O)c1cnn(-c2cc(F)cc(F)c2)c1N)C(F)(F)F)C(=O)c1ccccc1 (racemic) [Example 33 (racemic), 5-amino-1-(3,5-difluorophenyl)-N-(2-{[ethyl(phenylcarbonyl)amino]methyl}-3,3,3-trifluoro-2-hydroxypropyl)-1H-pyrazole-4-carboxamide] | < 1000 | ≥ 40 | – | < 316 | ≥ 40
8 | CCN(CC(O)(CNC(=O)c1cnn(-c2cccc(F)c2)c1N)C(F)(F)F)C(=O)c1ccccc1 (racemic) [Example 35 (racemic), 5-amino-N-(2-{[ethyl(phenylcarbonyl)amino]methyl}-3,3,3-trifluoro-2-hydroxypropyl)-1-(3-fluorophenyl)-1H-pyrazole-4-carboxamide] | < 1000 | ≥ 40 | – | < 316 | ≥ 40
9 | CCN(CC(O)(CNC(=O)c1cnn(-c2cccc(Cl)c2)c1N)C(F)(F)F)C(=O)c1ccccc1 (racemic) [Example 37 (racemic), 5-amino-1-(3-chlorophenyl)-N-(2-{[ethyl(phenylcar-bonyl)amino]methyl}-3,3,3-trifluoro-2-hydroxypropyl)-1H-pyrazole-4-carboxamide] | < 1000 | ≥ 40 | – | < 316 | ≥ 40
10 | CCN(CC(O)(CNC(=O)c1cnn(-c2ccc(F)cc2)c1N)C(F)(F)F)C(=O)c1ncccc1F (racemic) [Example 38 (racemic), N-{2-[({[5-amino-1-(4-fluorophenyl)-1H-pyrazol-4-yl]carbonyl}amino)methyl]-3,3,3-trifluoro-2-hydroxypropyl}-N-ethyl-3-fluoro-2-pyridinecarboxamide] | < 1000 | ≥ 40 | – | < 316 | ≥ 40
11 | Nc1c(C(=O)NCC(O)(CN(CCF)C(=O)c2ncccc2F)C(F)(F)F)cnn1-c1ccc(F)cc1 (racemic) [Example 40 (racemic), N-{2-[({[5-amino-1-(4-fluorophenyl)-1H-pyrazol-4-yl]carbonyl}amino)methyl]-3,3,3-trifluoro-2-hydroxypropyl}-3-fluoro-N-(2-fluoroethyl)-2-pyridinecarboxamide] | < 1000 | ≥ 40 | – | < 316 | ≥ 40
12 | CCN(CC(O)(CNC(=O)c1cnn(-c2ccccc2)c1N)C(F)(F)F)C(=O)c1ccccc1 (racemic) [Example 43 (racemic), 5-amino-N-(2-{[ethyl(phenylcar-bonyl)amino]methyl}-3,3,3-trifluoro-2-hydroxypropyl)-1-phenyl-1H-pyrazole-4-carboxamide] | < 1000 | ≥ 40 | – | < 316 | ≥ 40
13 | CCN(CC(O)(CNC(=O)c1cnn(-c2ccc(F)cc2)c1N)C(F)(F)F)C(=O)c1ccccc1F (single isomer, unassigned) [Example 4 Enantiomer 2, 5-Amino-N-[2-({ethyl[(2-fluorophenyl)carbonyl]amino}methyl)-3,3,3-trifluoro-2-hydroxypropyl]-1-(4-fluorophenyl)-1H-pyrazole-4-carboxamide] | < 1000 | ≥ 40 | – | < 316 | ≥ 40
